From PubChem BioAssay AID328 (DTP/NCI, 2004)
Several values for one entry are separate records, joined by “and”; a condition that tells them apart may be missing. Identical values can stand only once. Inconclusive results and toxic doses are left out.

System: BDF1 mice, P388 leukemia ip, median survival T/C
Assay: NCI In Vivo Anticancer Drug Screen. Data for tumor model P388 Leukemia (intraperitoneal) in B6D2F1 (BDF1) mice
Conditions: endpoint: median survival time, higher = longer survival
Outline: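 Compound-treated tumour-bearing mice were compared with vehicle-treated controls. Survival was recorded, and the value is the treated-group measurement divided by the control-group measurement (T/C).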

[1] = dose: 25.0 mg/kg/injection, schedule: Q01DX009 (ip), vehicle: Klucel (hydroxypropylcellulose) (HPC)
[2] = dose: 50.0 mg/kg/injection, schedule: Q01DX009 (ip), vehicle: Klucel (hydroxypropylcellulose) (HPC)
[3] = dose: 100.0 mg/kg/injection, schedule: Q04DX003 (ip), vehicle: Klucel (hydroxypropylcellulose) (HPC)
[4] = dose: 50.0 mg/kg/injection, schedule: Q01DX009 (ip), vehicle: saline
[5] = dose: 100.0 mg/kg/injection, schedule: Q01DX009 (ip), vehicle: saline
[6] = dose: 200.0 mg/kg/injection, schedule: Q01DX009 (ip), vehicle: saline
[7] = dose: 400.0 mg/kg/injection, schedule: Q01DX009 (ip), vehicle: saline
[8] = dose: 50.0 mg/kg/injection, schedule: Q01DX009 (ip), vehicle: saline with Tween-80
[9] = dose: 100.0 mg/kg/injection, schedule: Q01DX009 (ip), vehicle: saline with Tween-80
[10] = dose: 200.0 mg/kg/injection, schedule: Q01DX009 (ip), vehicle: saline with Tween-80
[11] = dose: 3.12 mg/kg/injection, schedule: Q01DX009 (ip), vehicle: saline

Compound: COc1cc(N(CCCl)CCCl)c(OC)cc1/C=N/NC(=O)CC(N)C(=O)O (centres undefined)
- T/C (dose: 16.0 mg/kg/injection, schedule: Q01DX009 (ip), vehicle: Klucel (hydroxypropylcellulose) (HPC)): 153 % of control
- T/C [1]: 150 % of control and 179 % of control
- T/C (dose: 35.0 mg/kg/injection, schedule: Q01DX009 (ip), vehicle: Klucel (hydroxypropylcellulose) (HPC)): 153 % of control
- T/C [2]: 177 % of control
- T/C (dose: 65.0 mg/kg/injection, schedule: Q04DX003 (ip), vehicle: Klucel (hydroxypropylcellulose) (HPC)): 181 % of control
- T/C [3]: 235 % of control
- T/C (dose: 132.0 mg/kg/injection, schedule: Q04DX003 (ip), vehicle: Klucel (hydroxypropylcellulose) (HPC)): 240 % of control and 247 % of control
- T/C (dose: 200.0 mg/kg/injection, schedule: Q04DX003 (ip), vehicle: Klucel (hydroxypropylcellulose) (HPC)): 265 % of control and 272 % of control and 180 % of control
- T/C (dose: 400.0 mg/kg/injection, schedule: Q04DX003 (ip), vehicle: Klucel (hydroxypropylcellulose) (HPC)): 100 % of control

Compound: CN1C(=O)N(C)C2(C=Cc3cc([N+](=O)[O-])ccc3O2)N(C)C1=O
- T/C [4]: 99 % of control
- T/C [5]: 101 % of control
- T/C [6]: 99 % of control

Compound: OC1OCCOC1O (centres undefined)
- T/C (dose: 17.8 mg/kg/injection, schedule: Q01DX009 (ip), vehicle: saline): 101 % of control
- T/C (dose: 26.6 mg/kg/injection, schedule: Q01DX009 (ip), vehicle: saline): 112 % of control
- T/C (dose: 40.0 mg/kg/injection, schedule: Q01DX009 (ip), vehicle: saline): 110 % of control
- T/C (dose: 65.0 mg/kg/injection, schedule: Q01DX009 (ip), vehicle: saline): 121 % of control
- T/C [5]: 166 % of control
- T/C (dose: 150.0 mg/kg/injection, schedule: Q01DX009 (ip), vehicle: saline): 169 % of control
- T/C (dose: 178.0 mg/kg/injection, schedule: Q01DX009 (ip), vehicle: saline): 166 % of control
- T/C [6]: 166 % of control
- T/C (dose: 266.0 mg/kg/injection, schedule: Q01DX009 (ip), vehicle: saline): 165 % of control
- T/C [7]: 157 % of control and 161 % of control and 168 % of control

Compound: COC1=C(N2CC2)C(=O)C(OC)=C(N2CC2)C1=O
- T/C (dose: 0.5 mg/kg/injection, schedule: Q01DX009 (ip), vehicle: Klucel (hydroxypropylcellulose) (HPC)): 217 % of control
- T/C (dose: 0.5 mg/kg/injection, schedule: Q01DX009 (ip), vehicle: saline): 162 % of control
- T/C (dose: 0.8 mg/kg/injection, schedule: Q04DX003 (ip), vehicle: saline with Tween-80): 170 % of control
- T/C (dose: 1.0 mg/kg/injection, schedule: Q01DX009 (ip), vehicle: Klucel (hydroxypropylcellulose) (HPC)): 234 % of control
- T/C (dose: 1.0 mg/kg/injection, schedule: Q01DX009 (ip), vehicle: saline with Tween-80): 179 % of control
- T/C (dose: 1.0 mg/kg/injection, schedule: Q01DX009 (ip), vehicle: saline): 201 % of control
- T/C (dose: 1.8 mg/kg/injection, schedule: Q04DX003 (ip), vehicle: saline with Tween-80): 154 % of control
- T/C (dose: 2.0 mg/kg/injection, schedule: Q01DX009 (ip), vehicle: Klucel (hydroxypropylcellulose) (HPC)): 285 % of control
- T/C (dose: 2.0 mg/kg/injection, schedule: Q01DX009 (ip), vehicle: saline with Tween-80): 91 % of control
- T/C (dose: 2.0 mg/kg/injection, schedule: Q01DX009 (ip), vehicle: saline): 252 % of control
- T/C (dose: 2.6 mg/kg/injection, schedule: Q04DX003 (ip), vehicle: saline with Tween-80): 173 % of control
- T/C (dose: 4.0 mg/kg/injection, schedule: Q01DX009 (ip), vehicle: Klucel (hydroxypropylcellulose) (HPC)): 326 % of control
- T/C (dose: 4.0 mg/kg/injection, schedule: Q01DX009 (ip), vehicle: saline): 92 % of control
- T/C (dose: 4.0 mg/kg/injection, schedule: Q04DX003 (ip), vehicle: saline with Tween-80): 165 % of control
- T/C (dose: 6.0 mg/kg/injection, schedule: Q04DX003 (ip), vehicle: saline with Tween-80): 200 % of control

Compound: CC1CCCCN1CCNc1ccc(CO)c2sc3ccccc3c(=O)c12 (centres undefined)
- T/C (dose: 25.0 mg/kg/injection, schedule: Q01DX009 (ip), vehicle: saline with Tween-80): 115 % of control
- T/C (dose: 44.0 mg/kg/injection, schedule: Q01DX009 (ip), vehicle: saline with Tween-80): 119 % of control
- T/C [8]: 119 % of control
- T/C [9]: 192 % of control and 210 % of control
- T/C (dose: 150.0 mg/kg/injection, schedule: Q01DX009 (ip), vehicle: saline with Tween-80): 278 % of control
- T/C [10]: 97 % of control

Compound: CCCCOCN(COCCCC)c1ccc(C)cc1
- T/C [8]: 100 % of control
- T/C [9]: 112 % of control

Compound: Cc1cc2nc(CO)[nH]c2cc1C
- T/C (dose: 100.0 mg/kg/injection, schedule: Q01DX009 (ip), vehicle: Klucel (hydroxypropylcellulose) (HPC)): 100 % of control
- T/C (dose: 200.0 mg/kg/injection, schedule: Q01DX009 (ip), vehicle: Klucel (hydroxypropylcellulose) (HPC)): 86 % of control
- T/C (dose: 400.0 mg/kg/injection, schedule: Q01DX009 (ip), vehicle: Klucel (hydroxypropylcellulose) (HPC)): 95 % of control

Compound: COc1cc(N)ccc1C(=O)O
- T/C (dose: 0.39 mg/kg/injection, schedule: Q01DX009 (ip), vehicle: saline): 103 % of control
- T/C (dose: 0.78 mg/kg/injection, schedule: Q01DX009 (ip), vehicle: saline): 99 % of control
- T/C [11]: 115 % of control
- T/C [4]: 95 % of control
- T/C [5]: 101 % of control
- T/C [6]: 96 % of control
- T/C [7]: 104 % of control

Compound: Nc1cc(NC(=O)c2ccc(Cl)cc2)ccc1S(=O)(=O)O
- T/C [11]: 117 % of control
- T/C (dose: 6.25 mg/kg/injection, schedule: Q01DX009 (ip), vehicle: saline): 99 % of control
- T/C (dose: 6.25 mg/kg/injection, schedule: Q04DX003 (ip), vehicle: Klucel (hydroxypropylcellulose) (HPC)): 95 % of control
- T/C (dose: 12.5 mg/kg/injection, schedule: Q01DX009 (ip), vehicle: saline): 90 % of control
- T/C (dose: 12.5 mg/kg/injection, schedule: Q04DX003 (ip), vehicle: Klucel (hydroxypropylcellulose) (HPC)): 106 % of control
- T/C (dose: 25.0 mg/kg/injection, schedule: Q01DX009 (ip), vehicle: saline): 87 % of control
- T/C (dose: 25.0 mg/kg/injection, schedule: Q04DX003 (ip), vehicle: Klucel (hydroxypropylcellulose) (HPC)): 93 % of control
- T/C (dose: 50.0 mg/kg/injection, schedule: Q04DX003 (ip), vehicle: Klucel (hydroxypropylcellulose) (HPC)): 98 % of control
- T/C [3]: 97 % of control

Compound: Nc1nc(-c2ccccc2N=NN2CCN(N=Nc3ccccc3-c3nc(N)c4ccccc4n3)CC2)nc2ccccc12
- T/C (dose: 0.78 mg/kg/injection, schedule: Q01DX009 (ip), vehicle: Klucel (hydroxypropylcellulose) (HPC)): 100 % of control
- T/C (dose: 1.56 mg/kg/injection, schedule: Q01DX009 (ip), vehicle: Klucel (hydroxypropylcellulose) (HPC)): 102 % of control
- T/C (dose: 3.13 mg/kg/injection, schedule: Q01DX009 (ip), vehicle: Klucel (hydroxypropylcellulose) (HPC)): 111 % of control
- T/C (dose: 6.25 mg/kg/injection, schedule: Q01DX009 (ip), vehicle: Klucel (hydroxypropylcellulose) (HPC)): 107 % of control and 110 % of control
- T/C (dose: 12.5 mg/kg/injection, schedule: Q01DX009 (ip), vehicle: Klucel (hydroxypropylcellulose) (HPC)): 102 % of control
- T/C [1]: 108 % of control
- T/C [2]: 105 % of control

Compound: CN1c2ccccc2C(=O)N2CCc3c([nH]c4ccccc34)C21 (centres undefined)
- T/C (dose: 10.0 mg/kg/injection, schedule: Q01DX009 (ip), vehicle: saline with Tween-80): 98 % of control
- T/C (dose: 20.0 mg/kg/injection, schedule: Q01DX009 (ip), vehicle: saline with Tween-80): 118 % of control

Compound: CN(C)c1oc2ccc3ccccc3c2c(=O)c1C#N
- T/C [8]: 95 % of control
- T/C [9]: 97 % of control
- T/C [10]: 92 % of control

Compound: O=C(CC(=O)Oc1ccc(Cl)cc1Cl)Oc1ccc(Cl)cc1Cl
- T/C [9]: 100 % of control
- T/C [10]: 100 % of control
- T/C (dose: 400.0 mg/kg/injection, schedule: Q01DX009 (ip), vehicle: saline with Tween-80): 100 % of control
